Results published in patent publication US20100152434A1, “Protein Kinase-binding Nucleosides and Associated Methods” (priority 2007, published 2010).
Where two headings read alike, the source gives them in different places.

Legend:
HOP-92 = test: cells; details: Homo sapiens
SN12C = test: cells; details: Homo sapiens
SNB-19 = test: cells; details: Homo sapiens
KM12 = test: cells; details: Homo sapiens
SF-295 = test: cells; details: Homo sapiens
NCI/ADR-RES = details: NCI/ADR-RES
SK-OV-3 [1] = test: cells; details: Homo sapiens
SK-OV-3 [2] = tested on: SK-OV-3
SK-MEL-5 [3] = tested on: SK-MEL-5
NCI-H322M = test: cells; details: Homo sapiens, NCI-H322M
HT29 = test: cells; details: Homo sapiens
OVCAR-4 = test: cells; details: Homo sapiens
788-0 = details: 786-0
NCI-H460 = test: cells; details: Homo sapiens
SK-MEL-5 [4] = test: cells; details: Homo sapiens
MALME-3M = test: cells; details: Homo sapiens
NCI-H23 = test: cells; details: Homo sapiens
OVCAR-8 = test: cells; details: Homo sapiens
RXF 393 = test: cells; details: Homo sapiens

CNC(=O)NC[C@H]1O[C@@H](n2cnc3c(NC(=O)Nc4ccccc4)ncnc32)[C@H](O[Si](C)(C)C(C)(C)C)[C@@H]1CC(=O)N(C)OC [Compound 13, 2′-O-(tert-Butyldimethylsilyl)-3′,5′-dideoxy-3′-[(N-methoxy-N-methylcarboxamido)methyl]-5′-[(N-methylcarbamoyl)amino]-N^6-(N-phenylcarbamoyl)adenosine]
GI50 (HOP-92; HOP-92): 2.71 µM | CC50 (HOP-92; HOP-92, read-out: LC50): > 100 µM | TGI (MDA-MB-231/ATCC): >1.00E−4 Molar | Percent Growth (MDA-MB-231/ATCC; Log10 Concentration −4.0): 5% | Percent Growth (MDA-MB-231/ATCC; Log10 Concentration −5.0): 55% | Percent Growth (MDA-MB-231/ATCC; Log10 Concentration −6.0): 94% | Percent Growth (MDA-MB-231/ATCC; Log10 Concentration −7.0): 104% | Percent Growth (MDA-MB-231/ATCC; Log10 Concentration −8.0): 97% | GI50 (SN12C): 85.3 µM | CC50 (SN12C; read-out: LC50): > 100 µM | GI50 (SNB-19; SNB-19): > 100 µM | CC50 (SNB-19; SNB-19, read-out: LC50): > 100 µM | GI50 (KM12; KM12): 23.9 µM | CC50 (KM12; KM12, read-out: LC50): > 100 µM | GI50 (SF-295; SF-295): 9.09 µM | CC50 (SF-295; SF-295, read-out: LC50): > 100 µM | TGI (UACC-257): >1.00E−4 Molar | Percent Growth (UACC-257; Log10 Concentration −4.0): 22% | Percent Growth (UACC-257; Log10 Concentration −5.0): 65% | Percent Growth (UACC-257; Log10 Concentration −6.0): 102% | Percent Growth (UACC-257; Log10 Concentration −7.0): 103% | Percent Growth (UACC-257; Log10 Concentration −8.0): 95% | TGI (HCT-116): >1.00E−4 Molar | Percent Growth (HCT-116; Log10 Concentration −4.0): 6% | Percent Growth (HCT-116; Log10 Concentration −5.0): 26% | Percent Growth (HCT-116; Log10 Concentration −6.0): 89% | Percent Growth (HCT-116; Log10 Concentration −7.0): 90% | Percent Growth (HCT-116; Log10 Concentration −8.0): 93% | TGI (NCI/ADR-RES): >1.00E−4 Molar | Percent Growth (NCI/ADR-RES; Log10 Concentration −4.0): 55% | Percent Growth (NCI/ADR-RES; Log10 Concentration −5.0): 76% | Percent Growth (NCI/ADR-RES; Log10 Concentration −6.0): 105% | Percent Growth (NCI/ADR-RES; Log10 Concentration −7.0): 109% | Percent Growth (NCI/ADR-RES; Log10 Concentration −8.0): 109% | GI50 (SK-OV-3 [1]; SK-OV-3): 52.7 µM | CC50 (SK-OV-3 [1]; SK-OV-3, read-out: LC50): > 100 µM | TGI (BT-549): >1.00E−4 Molar | Percent Growth (BT-549; Log10 Concentration −4.0): 26% | Percent Growth (BT-549; Log10 Concentration −5.0): 70% | Percent Growth (BT-549; Log10 Concentration −6.0): 96% | Percent Growth (BT-549; Log10 Concentration −7.0): 98% | Percent Growth (BT-549; Log10 Concentration −8.0): 95% | TGI (CCRF-CEM): >1.00E−4 Molar | Percent Growth (CCRF-CEM; Log10 Concentration −4.0): 23% | Percent Growth (CCRF-CEM; Log10 Concentration −5.0): 39% | Percent Growth (CCRF-CEM; Log10 Concentration −6.0): 96% | Percent Growth (CCRF-CEM; Log10 Concentration −7.0): 100% | Percent Growth (CCRF-CEM; Log10 Concentration −8.0): 101% | TGI (OVCAR-3): >1.00E−4 Molar | Percent Growth (OVCAR-3; Log10 Concentration −4.0): 6% | Percent Growth (OVCAR-3; Log10 Concentration −5.0): 41% | Percent Growth (OVCAR-3; Log10 Concentration −6.0): 100% | Percent Growth (OVCAR-3; Log10 Concentration −7.0): 107% | Percent Growth (OVCAR-3; Log10 Concentration −8.0): 95% | TGI (SK-OV-3 [2]): >1.00E−4 Molar | Percent Growth (SK-OV-3 [2]; Log10 Concentration −4.0): 38% | Percent Growth (SK-OV-3 [2]; Log10 Concentration −5.0): 82% | Percent Growth (SK-OV-3 [2]; Log10 Concentration −6.0): 95% | Percent Growth (SK-OV-3 [2]; Log10 Concentration −7.0): 97% | Percent Growth (SK-OV-3 [2]; Log10 Concentration −8.0): 96% | TGI (SK-MEL-5 [3]): >1.00E−4 Molar | Percent Growth (SK-MEL-5 [3]; Log10 Concentration −4.0): 11% | Percent Growth (SK-MEL-5 [3]; Log10 Concentration −5.0): 38% | Percent Growth (SK-MEL-5 [3]; Log10 Concentration −6.0): 89% | Percent Growth (SK-MEL-5 [3]; Log10 Concentration −7.0): 98% | Percent Growth (SK-MEL-5 [3]; Log10 Concentration −8.0): 104% | GI50 (NCI-H322M): > 100 µM | CC50 (NCI-H322M; read-out: LC50): > 100 µM | TGI (OVCAR-5): >1.00E−4 Molar | Percent Growth (OVCAR-5; Log10 Concentration −4.0): 35% | Percent Growth (OVCAR-5; Log10 Concentration −5.0): 71% | Percent Growth (OVCAR-5; Log10 Concentration −6.0): 92% | Percent Growth (OVCAR-5; Log10 Concentration −7.0): 98% | Percent Growth (OVCAR-5; Log10 Concentration −8.0): 99% | GI50 (HT29; HT-29): 5.37 µM | CC50 (HT29; HT-29, read-out: LC50): > 100 µM | GI50 (OVCAR-4; OVCAR-4): 53 µM | CC50 (OVCAR-4; OVCAR-4, read-out: LC50): > 100 µM | TGI (788-0): >1.00E−4 Molar | Percent Growth (788-0; Log10 Concentration −4.0): 8% | Percent Growth (788-0; Log10 Concentration −5.0): 48% | Percent Growth (788-0; Log10 Concentration −6.0): 93% | Percent Growth (788-0; Log10 Concentration −7.0): 92% | Percent Growth (788-0; Log10 Concentration −8.0): 95% | GI50 (NCI-H460; NCI-H460): 7.49 µM | CC50 (NCI-H460; NCI-H460, read-out: LC50): > 100 µM | TGI (MCF7): >1.00E−4 Molar | Percent Growth (MCF7; Log10 Concentration −5.0): 34% | Percent Growth (MCF7; Log10 Concentration −6.0): 96% | Percent Growth (MCF7; Log10 Concentration −7.0): 95% | Percent Growth (MCF7; Log10 Concentration −8.0): 91% | GI50 (SK-MEL-5 [4]; SK-MEL-5): 5.81 µM | CC50 (SK-MEL-5 [4]; SK-MEL-5, read-out: LC50): > 100 µM | GI50 (MALME-3M): 11.4 µM | CC50 (MALME-3M; read-out: LC50): > 100 µM | GI50 (NCI-H23; NCI-H23): 57.2 µM | CC50 (NCI-H23; NCI-H23, read-out: LC50): > 100 µM | GI50 (OVCAR-8; OVCAR-8): 9.02 µM | CC50 (OVCAR-8; OVCAR-8, read-out: LC50): > 100 µM | GI50 (RXF 393; RXF 393): 9.74 µM | CC50 (RXF 393; RXF 393, read-out: LC50): > 100 µM
